Assay results taken from patent US5100670A, “Use of a bacitracin fraction as a growth promoting agent” (Protor Co., priority 1989, dated 1992).

Columns and labels:
insulinase = insulinase inhibitory activity measurement (method of Duckworth et al.); assay type: biochemical; details: for anti-insulinase activity: general statement in the description; for insulinase inhibitory activity: peaks from CM-Sepharose column, Example 1
Description: The desired fraction is believed to have a molecular weight of about 1400, approximately the same as bacitracin A or F. Their anti-insulinase and antibacterial activities can be assayed in conventional manner. For example, the insulinase inhibitory activity was measured according to the method of Duckworth, et al., Proc. Nat. Acad. Sci., 69, 3698-3702 (1972) and the anti-bacterial activity by the method of Patrick, et al., Antibiotics and Chemotherapy, 1, 133-137 (1951).
A 350 ml bed volume cf CM-Sepharose in a packed column (2.8×56 cm) was equilibrated with 0.05M ammonium acetate, pH 4.5. One gram of commercial bacitracin dissolved in 50 ml of buffer was applied to the packed column. The material was eluted with 2 liter of equilibrating buffer followed by 350 ml of 1M ammonium acetate pH 4.5 buffer. Five ml fractions were collected and absorbance measurements at 252, 280 and 290 nm were made. In addition, insulinase inhibitory activity measurements were made on each peak. […] The peaks were collected, lyophilized, weighed and dissolved in water at 5 mg/ml concentration for specific activity measurements. The material collected with the second buffer contained 5-10% of the total weight of the applied material and 90% of the total insulinase inhibitory capacity. The specific activity of this material was 10-12 times that of the starting commercial material.

[1] = by the protease insulinase; cited from earlier work

bacitracin F
anti-insulinase activity (insulinase): substantially no anti-insulinase activity
insulinase inhibitory activity (insulinase): negligible

insulin
t1/2 of destruction of insulin after injection [1]: approximately 40 minutes

bacitracin A
anti-insulinase activity (insulinase): substantially no anti-insulinase activity
insulinase inhibitory activity (insulinase): negligible
